Test results published in patent US20240373851A1, “PEST CONTROL COMPOSITION AND PEST CONTROL METHOD” (SUMITOMO CHEMICAL COMPANY, LIMITED, priority 2021, published 2024).

Legend:
Type in all cases: in vivo
[1] = system: German cockroaches (Blattella germanica); assay: Test Example 6: control test against German cockroaches, spray in chamber; details: adult German cockroaches; 1.5 mL sprayed; concentration [%]: isocycloseram 0.05, imiprothrin 0.01, lambda-cyhalothrin 0.0025, alone or mixed; 60 minutes after spraying
Procedure: (§1) Next, the usefulness of the inventive composition for controlling pests will be indicated by Test Examples. In general, the control effect to be expected when treated with a mixture obtained by mixing given two or three types of active ingredient compounds is determined by the Colby's calculation equation represented by the following [Equation 1] and [Equation 2].
(§2) [formula] • P: moribund and mortal rates (%) when treated with an active ingredient compound X in the concentration of m [ppm] • Q: moribund and mortal rates (%) when treated with an active ingredient compound Y in the concentration of n [ppm] • EA: moribund and mortal rates (%) when treated with an active ingredient compound X in the concentration of m [ppm] and an active ingredient compound Y in the concentration of n [ppm] (hereinafter referred to as expected value A) […]
(§3) Regarding the synergistic effect of three types of the active ingredient compounds, in case where the moribund and mortal rates (%) when actually treated with a mixture obtained by mixing three types of the active ingredient compounds exceed the expected value A calculated by using the moribund and mortal rates (%) when actually treated with a mixture obtained by mixing two types of the active ingredient compounds among three types thereof, and the moribund and mortal rates (%) calculated when actually treated the remaining one type of the active ingredient compound, or the expected value B (%) calculated from the moribund and mortal rates (%) when actually treated with each of three types of the active ingredient compounds alone, it was determined that the synergistic effect exists. […]

[2] = system: German cockroaches (Blattella germanica); assay: Test Example 7: control test against German cockroaches, spray in chamber; details: adult German cockroaches; 1.5 mL sprayed; concentration [%]: isocycloseram 0.05, imiprothrin 0.01, cypermethrin 0.01, alone or mixed; 120 minutes after spraying
Procedure: as §1, §2, §3

[3] = system: German cockroaches (Blattella germanica); assay: Test Example 11: control test against German cockroaches, spray in chamber; details: adult German cockroaches; 1.5 mL sprayed; concentration [%]: isocycloseram 0.01, imiprothrin 0.01, permethrin 0.05, alone or mixed; 120 minutes after spraying
Procedure: as §1, §2, §3

[4] = system: German cockroaches (Blattella germanica); assay: Test Example 8: control test against German cockroaches, spray in chamber; details: adult German cockroaches; 1.5 mL sprayed; concentration [%]: nicofluprole 0.01, imiprothrin 0.01, phenothrin 0.1, alone or mixed; 45 minutes after spraying
Procedure: as §1, §2, §3

[5] = system: German cockroaches (Blattella germanica); assay: Test Example 4: control test against German cockroaches, spray in chamber; details: adult German cockroaches; 1.5 mL sprayed; concentration [%]: nicofluprole 0.01, imiprothrin 0.01, deltamethrin 0.0002, alone or mixed; 45 minutes after spraying
Procedure: as §1, §2, §3

[6] = system: German cockroaches (Blattella germanica); assay: Test Example 2: control test against German cockroaches, spray in chamber; details: adult German cockroaches; 1.5 mL sprayed; concentration [%]: nicofluprole 0.01, imiprothrin 0.01, cypermethrin 0.01, alone or mixed; 120 minutes after spraying
Procedure: as §1, §2, §3

[7] = system: German cockroaches (Blattella germanica); assay: Test Example 10: control test against German cockroaches, spray in chamber; details: adult German cockroaches; 1.5 mL sprayed; concentration [%]: nicofluprole 0.01, imiprothrin 0.01, permethrin 0.05, alone or mixed; 60 minutes after spraying
Procedure: as §1, §2, §3

[8] = system: German cockroaches (Blattella germanica); assay: Test Example 5: control test against German cockroaches, spray in chamber; details: adult German cockroaches; 1.5 mL sprayed; concentration [%]: nicofluprole 0.01, imiprothrin 0.01, cyfluthrin 0.0002, alone or mixed; 45 minutes after spraying
From the text: (§4) Next, the usefulness of the inventive composition for controlling pests will be indicated by Test Examples.
(§5) (hereinafter referred to as expected value A)
(§6) (hereinafter referred to as expected value B)
(§7) In a plastic cup (diameter: 12.4 cm, height: 10.2 cm) lined with a filter paper, ten adult German cockroaches (Blattella germanica) (five males and five females each) or eleven adult German cockroaches were released, and the plastic cup was placed in the center of the bottom of a box-shaped chamber (46 cm×46 cm×70 cm in height). From the height of 60 cm, 1.5 mL of each of formulations prepared by dissolving a single agent of any one of nicofluprole, imiprothrin and cyfluthrin, or a mixed agent of two or more thereof in a mixture of isopropyl alcohol and Isopar M at a mixing ratio of 1:9 was sprayed under a spray pressure of 0.041 MPa. After a lapse of 45 minutes from spraying, the number of dead and moribund individuals was examined, and moribund and mortal rates (%) were determined by the above equation 3. The test was performed through two replicates. Dead individuals are completely immobile individuals, and moribund individuals are individuals who cannot get up when turned on their backs.

[9] = system: German cockroaches (Blattella germanica); assay: Test Example 9: control test against German cockroaches, spray in chamber; details: adult German cockroaches; 1.5 mL sprayed; concentration [%]: broflanilide 0.02, imiprothrin 0.01, permethrin 0.05, alone or mixed; 420 minutes after spraying
From the text: as §4, §5, §6
as §7, with “each)” for “each) or eleven adult German cockroaches”, “broflanilide,” for “nicofluprole,”, “permethrin,” for “cyfluthrin,”, “420” for “45”

Row | SMILES | Moribund and mortal rates [%] after 60 minutes [1] [%] | Moribund and mortal rates [%] after 120 minutes [2] [%] | Moribund and mortal rates [%] after 120 minutes [3] [%] | Moribund and mortal rates [%] after 45 minutes [4] [%] | Moribund and mortal rates [%] after 45 minutes [5] [%] | Moribund and mortal rates [%] after 120 minutes [6] [%] | Moribund and mortal rates [%] after 60 minutes [7] [%] | Moribund and mortal rates [%] after 45 minutes [8] [%] | Moribund and mortal rates [%] after 420 minutes [9] [%]
1 | CCN1OCC(NC(=O)c2ccc(C3=NOC(c4cc(Cl)c(F)c(Cl)c4)(C(F)(F)F)C3)cc2C)C1=O (centres unmarked) [Isocycloseram, isocycloseram] | 5 | 10 | 5 | – | – | – | – | – | –
2 | CN(C(=O)c1cc(-c2cnn(-c3c(Cl)cc(C(F)(C(F)(F)F)C(F)(F)F)cc3Cl)c2)cnc1Cl)C1CC1 [Nicofluprole, nicofluprole] | – | – | – | 0 | 0 | 0 | 0 | 0 | –
3 | CC1(C)C(C=C(Cl)Cl)C1C(=O)OCc1cccc(Oc2ccccc2)c1 (centres unmarked) [Permethrin, permethrin] | – | – | 5 | – | – | – | 5 | – | 5
